According to article PMC6856131, “Pathways to defense metabolites and evading fruit bitterness in genus Solanum evolved through 2-oxoglutarate-dependent dioxygenases” (Nature Communications, 2019):

Tests used:
ScGAME32-8380-1-1 = system: T1, ScGAME32-8380-1-1; experiment: hydroxylation assay, UPLC-qTOF-MS; assay type: biochemical, Solanum chacoense; details: alpha-ketoglutarate 10 mM, ascorbate 10 mM, FeSO4 500 uM, pH 7.5, 30 °C, 3 h; standard contains isomer impurities
T1 construct: pET28b, E. coli BL21 (DE3), Ni-NTA purified

ScGAME32-8380-1-2 = system: T2, ScGAME32-8380-1-2; experiment: hydroxylation assay, UPLC-qTOF-MS; assay type: biochemical, Solanum chacoense; details: alpha-ketoglutarate 10 mM, ascorbate 10 mM, FeSO4 500 uM, pH 7.5, 30 °C, 3 h; standard contains isomer impurities
T2 construct: pET28b, E. coli BL21 (DE3), Ni-NTA purified

GAME31 (tomato) = target: T3, GAME31 (tomato) (Solanum lycopersicum, UniProt A0A6F8PJG0); assay type: biochemical; details: alpha-ketoglutarate 10 mM, ascorbate 10 mM, FeSO4 500 uM, pH 7.5, 30 °C, 3 h
T3 construct: gene 23DOX
T3 sequence (A0A6F8PJG0 entry or part of it): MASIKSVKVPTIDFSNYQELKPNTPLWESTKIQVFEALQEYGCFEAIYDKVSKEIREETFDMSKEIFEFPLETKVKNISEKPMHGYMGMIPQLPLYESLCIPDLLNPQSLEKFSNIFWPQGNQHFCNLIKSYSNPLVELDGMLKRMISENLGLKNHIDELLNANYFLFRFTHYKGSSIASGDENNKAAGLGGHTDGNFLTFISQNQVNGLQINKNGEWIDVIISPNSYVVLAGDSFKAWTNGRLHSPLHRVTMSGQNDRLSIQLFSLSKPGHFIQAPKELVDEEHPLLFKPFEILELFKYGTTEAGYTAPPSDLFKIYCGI

T2 sequence (DOC6856131_7 entry or part of it): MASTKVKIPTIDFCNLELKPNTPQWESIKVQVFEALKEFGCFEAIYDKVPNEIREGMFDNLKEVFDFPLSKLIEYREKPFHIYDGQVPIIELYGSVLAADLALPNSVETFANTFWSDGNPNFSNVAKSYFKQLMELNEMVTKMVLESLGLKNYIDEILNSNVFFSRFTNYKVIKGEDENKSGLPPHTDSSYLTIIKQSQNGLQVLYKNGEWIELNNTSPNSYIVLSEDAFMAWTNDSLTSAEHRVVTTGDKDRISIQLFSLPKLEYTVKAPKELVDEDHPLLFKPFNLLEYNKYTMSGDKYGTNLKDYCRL
T1 sequence (DOC6856131_6 entry or part of it): as the sequence (DOC6856131_7 entry or part of it) above, with L288M, N292L, Y301S counted along it

| Structure (SMILES) | hydroxylation assay, UPLC-qTOF-MS (ScGAME32-8380-1-1) | hydroxylation assay, UPLC-qTOF-MS (ScGAME32-8380-1-2) | hydroxylation assay, UPLC-qTOF-MS (GAME31 (tomato)) |
| --- | --- | --- | --- |
| C[C@H]1CC[C@@H]2[C@@H](C)[C@H]3[C@H](C[C@H]4[C@@H]5CC=C6C[C@@H](O[C@@H]7O[C@H](CO)[C@@H](O[C@@H]8O[C@@H](C)[C@H](O)[C@@H](O)[C@H]8O)[C@H](O)[C@H]7O[C@@H]7O[C@@H](C)[C@H](O)[C@@H](O)[C@H]7O)CC[C@]6(C)[C@H]5CC[C@]34C)N2C1 [α-chaconine] | Incubation of ScGAME32-8380-1-1 or ScGAME32-8380-1-2 with α-chaconine and α-solanine resulted in the formation | Incubation of ScGAME32-8380-1-1 or ScGAME32-8380-1-2 with α-chaconine and α-solanine resulted in the formation | – |
| C[C@@H]1CC[C@@]2(NC1)O[C@H]1C[C@H]3[C@@H]4CC=C5C[C@@H](O[C@@H]6O[C@H](CO)[C@@H](O[C@@H]7O[C@@H](C)[C@H](O)[C@@H](O)[C@H]7O)[C@H](O)[C@H]6O[C@@H]6O[C@@H](C)[C@H](O)[C@@H](O)[C@H]6O)CC[C@]5(C)[C@H]4CC[C@]3(C)[C@H]1[C@@H]2C [α-solamargine] | – | – | hydroxy-solasodine, and hydroxy-solamargine from dehydrotomatine, solasodine, and α-solamargine, respectively |
